The record followed here is ChEMBL document CHEMBL1201862, “PubChem BioAssay data set” (2004).

What all share (assay): growth of human tumour cells (NCI), 48 h
Assay [1] concerns A549.
Assay [2] deals with EKVX.
The subject of assay [3] is HL-60.
Assay [4] relates to ACHN.
The subject of assay [5] is SK-OV-3.
In assay [6] the test system is SK-MEL-2.
Assay [7] deals with SK-MEL-5.
In assay [8] the test system is NCI-H23.
Assay [9] has as its system UACC-62.
The subject of assay [10] is HCT-116.
Assay [11] has as its system HT-29.
The test system of assay [12] is IGROV-1.
The subject of assay [13] is SF-295.
Assay [14] deals with M14.
In assay [15] the test system is HCC 2998.

The structures appear in SMILES notation.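 Following 48 hours of exposure in 96-well plates, responses at five concentrations were used to interpolate endpoints linearly. GI50 = concentration required for 50% inhibition of growth.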 Calls of active or inactive are those of the source. Rule as the data show it: active = GI50 up to about 1.1 µM and inactive = higher. A value given as a limit tells only on which side of the number the result lay.

Consider `CCN(CC)c1ccc(C(=O)c2ccccc2C(=O)O)c(O)c1`, for which the GI50 in assay [1], in assay [2], in [3], in assay [4], in assay [5] and in [6] was > 100 µM (inactive) in each case. In addition, the GI50 in [7], in [8], in [9], in [10], in assay [11] and in assay [12] was > 100 µM (inactive) in each case. Further, the GI50 in assay [13] and in assay [14] was > 100 µM (inactive) in each case.

As for `CN1CCS(=O)(=O)NC(Cc2ccccc2)C(=O)N2CCCC2C1=O` (stereo not given), the GI50 in assay [1], in [2], in [3], in assay [4], in [5] and in [6] was > 100 µM (inactive) in each case. Besides, the GI50 in assay [7], in [8], in assay [9], in assay [15], in [10] and in [11] was > 100 µM (inactive) each time. Further, the GI50 in assay [12] and in assay [13] was > 100 µM (inactive) throughout.

Consider `CCCCCCCCCCCCCS(=O)(=O)O`, for which the GI50 in assay [1], in assay [2], in [3], in [4], in assay [6] and in [7] was > 100 µM (inactive) each time. For the same compound, the GI50 in assay [8], in assay [9], in [15], in assay [10], in assay [11] and in assay [12] was > 100 µM (inactive) each time. Besides, the GI50 in assay [13] and in assay [14] was > 100 µM (inactive) throughout.

On to `COc1cc(CCc2ccc(OC(C)=O)cc2)cc(OC)c1OC`, for which the GI50 was > 100 µM (inactive) in assay [1]; > 100 µM (inactive) in assay [2]; > 100 µM (inactive) in assay [3]; 79.4 µM (inactive) in assay [4]; > 100 µM (inactive) in [7]; > 100 µM (inactive) in [9]. Further, the GI50 in assay [10], in [11], in [12], in [13] and in [14] was > 100 µM (inactive) throughout.

As to `COC(=O)C(CCC1(C)OCCO1)C(C)=O` (stereo not given), the GI50 in assay [1], in assay [2], in assay [3], in [4], in assay [5] and in assay [6] was > 100 µM (inactive) throughout. In addition, the GI50 in assay [7], in [8], in [15], in assay [10], in [11] and in assay [12] was > 100 µM (inactive) throughout. Also, the GI50 in assay [13] and in [14] was > 100 µM (inactive) throughout.

As for `Cc1ccc(NC(=O)C2C(=O)C(=O)N(c3ccc(C)cc3)C2=O)cc1` (stereo not given), the GI50 in assay [1], in assay [2], in [3], in [4], in [6] and in [7] was > 100 µM (inactive) throughout. The GI50 in [8], in [9], in assay [15], in assay [10], in assay [11] and in assay [12] was > 100 µM (inactive) in each case. Besides, the GI50 in assay [13] and in assay [14] was > 100 µM (inactive) in each case.

`CCCCOC(=O)CNC(=O)OCCCCC#CC#CCCCCOC(=O)NCC(=O)OCCCC`: the GI50 in [1], in [2], in [3], in assay [4], in assay [5] and in assay [7] was > 100 µM (inactive) in each case. Besides, the GI50 in assay [8], in assay [9], in [15], in assay [10], in assay [11] and in assay [12] was > 100 µM (inactive) each time. Also, the GI50 in assay [13] and in assay [14] was > 100 µM (inactive) in each case.

On to `COc1ccccc1/C=C1\CCC(CCN2CCOCC2)C1=O` (stereo not given), for which the GI50 in assay [1] was > 100 µM (inactive); in [2], > 100 µM (inactive); in assay [3], 31.5 µM (inactive); in assay [4], 75.2 µM (inactive); in assay [6], > 100 µM (inactive); in assay [7], 68.1 µM (inactive). Moreover, the GI50 in [8] is > 100 µM (inactive); in [9], > 100 µM (inactive); in assay [15], 66.1 µM (inactive); in assay [10], 70.8 µM (inactive); in [11], 50.1 µM (inactive); in assay [12] it was > 100 µM (inactive). The GI50 in [13] and in assay [14] was > 100 µM (inactive) throughout.

Consider `Cc1ccccc1CN1CC=c2ccccc2=N1`, for which the GI50 in assay [1] was 93.5 µM (inactive); in assay [2], 93.5 µM (inactive); in assay [4] it was > 100 µM (inactive); in assay [5], > 100 µM (inactive); in [6] it was > 100 µM (inactive); in assay [7] it was 97.9 µM (inactive). The GI50 in assay [8] is > 100 µM (inactive); in assay [9] it was > 100 µM (inactive); in assay [15], > 100 µM (inactive); in [10], > 10 µM (inactive); in assay [11], > 100 µM (inactive); in assay [12] it was > 100 µM (inactive). Further, the GI50 in assay [13] and in [14] was > 100 µM (inactive) throughout.

Regarding `CCCNCCCC(NC(C)=O)C(=O)NCc1ccccc1` (stereo not given), the GI50 in assay [1], in [2], in [4], in assay [5], in assay [6] and in assay [7] was > 100 µM (inactive) throughout. Also, the GI50 in assay [8], in [9], in assay [15], in assay [10], in assay [11] and in assay [12] was > 100 µM (inactive) throughout. Moreover, the GI50 in [13] and in [14] was > 100 µM (inactive) in each case.

On to `S=C(Nc1ccccc1)N1N=C2c3ccccc3CC[C@H]2[C@@H]1c1ccccc1`, for which the GI50 in assay [1] is 4.66 µM (inactive); in assay [2], > 100 µM (inactive); in [3], 0.855 µM (active); in [4], 6.78 µM (inactive); in assay [5], 2.22 µM (inactive); in [6], 2.35 µM (inactive). Besides, the GI50 in assay [8] is 5.27 µM (inactive); in assay [9], 2.75 µM (inactive); in assay [15], > 100 µM (inactive); in [10] it was > 100 µM (inactive); in assay [11], 2.81 µM (inactive); in [12] it was 4.54 µM (inactive). Besides, the GI50 in [14] was 4.89 µM (inactive).

With `Cn1cc(NC(=O)c2cc(NC(=O)CCCCCCCCCC(=O)Nc3cc(C(=O)Nc4cc(C(=O)NCCC(=N)N)n(C)c4)n(C)c3)cn2C)cc1C(=O)NCCC(=N)N`, the GI50 in assay [1] was 18.7 µM (inactive); in assay [2] it was 28.6 µM (inactive); in assay [4], 23.5 µM (inactive); in assay [5] it was 92 µM (inactive); in assay [6] it was 29.3 µM (inactive); in assay [7], 14.7 µM (inactive). Further, the GI50 is 34.8 µM (inactive) in assay [8]; 31.2 µM (inactive) in assay [9]; 24.5 µM (inactive) in assay [10]; 20.7 µM (inactive) in [11]; 41.5 µM (inactive) in assay [12]; 22.1 µM (inactive) in [13]. Besides, the GI50 in assay [14] was 23.1 µM (inactive).

For `O=C1[C@@H]2C(c3ccc(Cl)cc3Cl)=NO[C@@H]2C(=O)N1c1ccc(Cc2ccc(N3C(=O)[C@H]4C(c5ccc(Cl)cc5Cl)=NO[C@H]4C3=O)cc2)cc1`, the GI50 in assay [1] is > 100 µM (inactive); in assay [2], > 100 µM (inactive); in assay [3], 11.4 µM (inactive); in assay [5] it was > 100 µM (inactive); in [6], > 100 µM (inactive); in [7], 52.1 µM (inactive). For the same compound, the GI50 in assay [8] is > 100 µM (inactive); in assay [9] it was 71.6 µM (inactive); in assay [15], > 100 µM (inactive); in assay [11] it was > 100 µM (inactive); in assay [12], 70 µM (inactive); in assay [13], 74 µM (inactive). Besides, in assay [14], the GI50 is 37.7 µM (inactive).

As for `Cc1cc2c(c3c1c1ccccc1n3C)C(=O)c1ccccc1C2=O`, the GI50 in [1] was > 100 µM (inactive); in assay [2] it was > 100 µM (inactive); in [3] it was 39.3 µM (inactive); in [4] it was > 100 µM (inactive); in assay [6] it was > 100 µM (inactive); in [7], > 100 µM (inactive). For the same compound, the GI50 in assay [8] was 48.5 µM (inactive); in assay [9], > 100 µM (inactive); in assay [15], > 100 µM (inactive); in assay [10], > 100 µM (inactive); in [11], > 100 µM (inactive); in assay [12], 45.7 µM (inactive). For the same compound, the GI50 in [13] and in assay [14] was > 100 µM (inactive) each time.
